# Reference: patent US20050186569A1, “Nucleic acid-associated proteins” (priority 2001, published 2005)
# Key:
# [1] = tested on: SEQ ID NO:100 expression in HMVECdNeos; experiment: Microarray expression analysis of HMVECdNeos treated with TNF-α versus untreated cells; assay type: cell-based, human; details: HMVECdNeos at 85% confluence treated 1, 2, 4, 8, and 24 hours with TNF-α, versus untreated (0 hour)
# Description: (§1) Total RNA is isolated from tissue samples using the guanidinium thiocyanate method and poly(A)^+ RNA is purified using the oligo-(dT) cellulose method. Each poly(A)^+ RNA sample is reverse transcribed using MMLV reverse-transcriptase, 0.05 pg/μl oligo-(dT) primer (21mer), 1× first strand buffer, 0.03 units/μl RNase inhibitor, 500 μM dATP, 500 μM dGTP, 500 μM dTTP, 40 μM dCTP, 40 μM dCTP-Cy3 (BDS) or dCTP-Cy5 (Amersham Biosciences). The reverse transcription reaction is performed in a […] containing 200 ng poly(A)^+ RNA with GEMBRIGHT kits (Incyte Genomics). Specific control poly(A)^+ RNAs are synthesized by in vitro transcription from non-coding yeast genomic DNA. […]
# (§2) Sequences of the present invention are used to generate array elements. […] Array elements are amplified in thirty cycles of PCR from an initial quantity of 1-2 ng to a final quantity greater than 5 μg. […]
# (§3) Reporter-labeled hybridization complexes are detected with a microscope equipped with an Innova 70 mixed gas 10 W laser (Coherent, Inc., Santa Clara Calif.) capable of generating spectral lines at 488 nm for excitation of Cy3 and at 632 nm for excitation of Cy5. […]
# (§4) A grid is superimposed over the fluorescence signal image such that the signal from each spot is centered in each element of the grid. […]
# [2] = tested on: SEQ ID NO:108 expression in HMVECdNeo cells; experiment: Microarray RNA expression of HMVECdNeo cells treated with TNF-α versus untreated cells; assay type: cell-based, human; details: TNF-α 10 ng/ml for 2, 4, 8, and 24 hours, result at the last three time points, versus untreated (0 hour)
# Description: as §1, §2, §3, §4
substance,measurement,setting,value
TNF-α,expression of SEQ ID NO:100,[1],decreased expression
same,expression of SEQ ID NO:108 (underexpressed),[2],at least two-fold
